Source: patent US6413975B1, “Purine derivatives having phosphodiesterase iv inhibition activity” (Euro-Celtique, S.A., priority 1999, dated 2002)
Where a name gives a salt, the structure may show the parent alone.

Each compound was assayed on Type IV PDE (assay: PDE IV inhibition: hydrolysis of [3H]-cyclic AMP by isolated Type IV PDE). Conditions: adenines, Table 4; cyclic AMP 0.2 μM; read-out: calc PDE IV IC50.
Assay type: biochemical, bovine
Procedure: The Type IV PDE is isolated from bovine tracheal smooth muscle using a procedure similar to that previously described by Silver, P. J., Hamel, L. T., Perrone, M. H. Bentley, R. G. Bushover, C. R., Evans, D. B.: Eur. J. Pharmacol. 150:85,1988.(1). Briefly, smooth muscle from bovine trachea is minced and homogenized using a polytron in 10 volumes of an extraction buffer containinhg 10 mM Tris-acetate (pH 7.5), 2 mM magnesium chloride, 1 mM dithiothreitol and 2,000 units/ml of aprotinin. This and all subsequent procedures are performed at 0-4° C. The homogenate is sonicated and then centrifiged at 48,000×g for 30 minutes. The resulting supernatant is applied to a DEAE Trisacryl M column previously equilibrated with sodium acetate and dithiothreitol. After applications of the sample, the column is washed with sodium acetate/dithiothreitol, after which the different forms of PDE are eluted from the column using a linear Tris-HCl/NaCl gradient. Fractions containing Type IV PDE are collected, dialyzed and concentrated to 14% of the original volume. The concentrated fractions are diluted to 50% with ethylene glycol and stored at -20° C.
Enzyme activity is assessed by measuring the hydrolysis of [^3H]-cyclic AMP, as described by Thompson, W. J., Teraski, W. L., Epstein, P. N., Strada, S. J.: Adv. Cyclic Nucleotide Res. 10:69, 1979. The cyclic AMP concentration used in this assay is 0.2 μM, which approximates the Km value. Protein concentration is adjusted to ensure that no more than 15% of the available substrate is hydrolyzed during the incubation period.
All test compounds are dissolved in dimethyl sulfoxide (final concentration of 2.5%). This concentration of dimethyl sulfoxide inhibits enzyme activity by approximately 10%.

**Q.** How did the IC50 turn out when `CCCNc1ncn(CC)c2nc(C3CC3)nc1-2` [8-cyclopropyl-3-ethyl-6-propylamino-3H-purine hydrochloride] was run?
**A.** Its IC50 is 15.7 µM.

**Q.** For `CCNc1ncn(CC)c2nc(C3CCCC3)nc1-2` [3-ethyl-8-cyclopentyl-6-ethylamino-3H-purine hydrochloride], which IC50 is on record?
**A.** Its IC50 is 28.3 µM.

**Q.** Which IC50 does the source give for `CCn1cnc(NCc2ccccc2)c2nc(C3CCCC3)nc1-2` [3-ethyl-8-cyclopentyl-6-benzylamino-3H-purine hydrochloride] here?
**A.** The IC50 was 62.4 µM.

**Q.** Which IC50 does the source give for `CCNc1ncn(CC2CC2)c2nc(C3CC3)nc1-2` [8-cyclopropyl-3-cyclopropylmethyl-6-ethylamino-3H-purine hydrochloride] here?
**A.** The IC50 was 4.11 µM.

**Q.** With `CCn1cnc(NCc2ccccc2)c2nc(C(C)C)nc1-2` [3-ethyl-8-isopropyl-6-benzylamino-3H-purine hydrochloride] as the compound, how does the IC50 read?
**A.** The IC50 was 28.9 µM.

Same assay, conditions: adenines, Table 7; read-out: calc PDE IV IC50

**Q.** `CCNc1ncn(Cc2ccc(OC)c(OC3CCCC3)c2)c2nc(C(C)C)nc1-2` [6-ethylamino-3-[(3-cyclopentyloxy-4-methoxy)benzyl]-8-isopropyl-3H-purine] was tested. Which IC50 did it give?
**A.** Its IC50 is 0.66 µM.

**Q.** `CCNc1ncn(Cc2ccc(OC)c(O[C@@H]3C[C@H]4CC[C@@H](C3)N4C)c2)c2nc(C(C)C)nc1-2` [6-Ethylamino-3-[(exo-8-methyl-8-azabicyclo(3,2,1)-octan-3-yl-oxy)-4-methoxy-benzy]-8-isopropyl-3-H-purine] was tested. Which IC50 did it give?
**A.** Its IC50 is 6.02 µM.

**Q.** `CCNc1ncn(Cc2ccc(OC)c(OCc3cc[n+]([O-])cc3)c2)c2nc(C(C)C)nc1-2` [6-Ethylamino-3-[(3-pyridin-4-yl-methoxy)N-oxide-4-methoxy]-8-isopropyl-3H-purine] was tested. Which IC50 did it give?
**A.** Its IC50 is 4.5 µM.

**Q.** Which IC50 does the source give for `CCNc1ncn(Cc2ccc(OC)c(OC3CN4CCC3CC4)c2)c2nc(C(C)C)nc1-2` (stereo not drawn) [6-Ethylamino-3-[3-(2,2,2)-azabicyclooctan-3-yloxy)-4-methoxy]-8-isopropyl-3H-purine] here?
**A.** Its IC50 is 2.05 µM.

**Q.** Which IC50 does the source give for `CCNc1ncn(Cc2ccc(OC)c(O)c2)c2nc(C(C)C)nc1-2` [6-ethylamino-3-(3-hydroxy-4-methoxybenzyl)-8-isopropyl-3H-purine] here?
**A.** The IC50 was 2.73 µM.

**Q.** For `CCNc1nc(NCC)n(Cc2ccc(Cl)cc2)c2nc(C(C)C)nc1-2` [3-(4-chlorobenzyl)-2,6-di(ethylamino)-8-isopropyl-3H-purine], which IC50 is on record?
**A.** The IC50 was 11.2 µM.

**Q.** Which IC50 does the source give for `COc1ccc(Cn2cnc(N)c3nc(C(C)(C)OCc4ccccc4)nc2-3)cc1OCc1ccccc1` [6-amino-3-[(3-benzyloxy-4-methoxy)benzyl]-8-[(1-benzyloxy-1-methyl)ethyl]-3H-purine] here?
**A.** Its IC50 is 3.12 µM.

**Q.** For `CCNc1ncn(Cc2ccc(OC)c(OC3CCC(O)C3)c2)c2nc(C(C)C)nc1-2` (stereo not drawn) [3-[3-(3-hydroxy)cyclopentyloxy)]-4-methoxy)benzyl)-6-ethylam] [3-[3-(3-hydroxy)cyclopentyloxy)]-4-methoxy)benzyl)-6-ethylamino-8-isopropyl-3H-purine], which IC50 is on record?
**A.** Its IC50 is 2.28 µM.

**Q.** For `CC(C)c1nc2c(N)ncn(Cc3ccc(Cl)cc3)c-2n1` [6-amino-3-(4-chlorobenzyl)-8-isopropyl-3H-purine], which IC50 is on record?
**A.** The IC50 was 20.8 µM.

**Q.** With `COc1ccc(Cn2cnc(N)c3nc(C(C)C)nc2-3)cc1OCc1ccccc1` [6-amino-3-((3-benzyloxy-4-methoxy)-bezyl)-8-isopropyl-3H-purine] as the compound, how does the IC50 read?
**A.** Its IC50 is 6.4 µM.

**Q.** For `CC(C)c1nc2c(NC3(O)CCCC3)ncn(Cc3ccc(Cl)cc3)c-2n1` [3-(4-chlorobenzyl)-6-((1-hydroxy)cyclopentylamino)-8-isopropyl-3H-purine], which IC50 is on record?
**A.** The IC50 was 4.48 µM.

**Q.** `CCNc1ncn(Cc2ccc(OC)c(OCc3ccncc3)c2)c2nc(C(C)C)nc1-2` [6-Ethylamino-8-isopropyl-3-[3-(pyridin-4-yl-methoxy)-4-methoxy-benzyl]-3H-purine] was tested. Which IC50 did it give?
**A.** The IC50 was 24.5 µM.

**Q.** How did the IC50 turn out when `CC(C)c1nc2c(NC3CC3)ncn(Cc3ccc(Cl)cc3)c-2n1` [3-(4-chlorobenzyl)-6-cyclopropylamino-8-isopropyl-3H-purine] was run?
**A.** Its IC50 is 1.69 µM.

**Q.** `COc1ccc(Cn2cnc(N)c3ncnc2-3)cc1OC1CCCC1` [6-Amino-3-(3-cyclopentyloxy-4-methoxybenzyl)-3H-purine] was tested. Which IC50 did it give?
**A.** The IC50 was 0.31 µM.

**Q.** `CCNc1ncn(Cc2ccc(F)cc2)c2nc(C(C)C)nc1-2` [6-ethylamino-3-(4-fluorobenzyl)-8-isopropyl-3H-purine] was tested. Which IC50 did it give?
**A.** Its IC50 is 1.85 µM.

**Q.** `CCNc1ncn(Cc2ccc(OC)c(OCC3CCN(C)CC3)c2)c2nc(C(C)C)nc1-2` [6-Ethylamino-3-[3-(1-methylpiperidin-4-yl-methoxy)-4-methoxy-benzy]-8-isopropyl-3H-purine] was tested. Which IC50 did it give?
**A.** Its IC50 is 6.6 µM.

**Q.** With `C=C(C)c1nc2c(NCC)ncn(Cc3ccc(OC)c(OC4CCCC4)c3)c-2n1` [3-[(3-cyclopentyloxy-4-methoxy)benzyl]-6-ethylamino-8-(1-methyl-ethenyl)-3H-purine] as the compound, how does the IC50 read?
**A.** The IC50 was 0.27 µM.

**Q.** `COc1ccc(Cn2cnc(N)c3nc(C(C)C)nc2-3)cc1OC1CCCC1` [3-(3-cyclopentyloxy-4-methoxybenzyl)-6-amino-8-isopropyl-3H-purine] was tested. Which IC50 did it give?
**A.** Its IC50 is 0.82 µM.

**Q.** For `CCNc1ncn(Cc2ccc(OC)c(OC3CCCCC3)c2)c2nc(C(C)C)nc1-2` [3-[3-Cyclohexanyl-4-oxy-4-methoxy-benzyl]-6-ethylamino-8-isopropyl-3H-purine], which IC50 is on record?
**A.** Its IC50 is 8.28 µM.

**Q.** How did the IC50 turn out when `CCNc1ncn(Cc2ccc(OC)c(OCCCCO)c2)c2nc(C(C)C)nc1-2` [6-ethylamino-8-isopropyl-3-[(4-methoxy-3-(4-hydroxybutoxy))benzyl]-3H-purine] was run?
**A.** The IC50 was 1.75 µM.

**Q.** `CCNc1ncn(-c2ccc(Cl)cc2)c2nc(C(C)C)nc1-2` [3-(4-chlorophenyl)-6-ethylamino-8-isopropyl-3H-purine] was tested. Which IC50 did it give?
**A.** Its IC50 is 6.5 µM.

**Q.** How did the IC50 turn out when `COc1ccc(Cn2cnc(N)c3nc(C(C)C)nc2-3)cc1OCCCCO` [6-amino-8-isopropyl-3-[(4-methoxy-3-([(4-hydroxybutoxy))benzyl]-3H-purine] was run?
**A.** Its IC50 is 4.2 µM.

**Q.** How did the IC50 turn out when `CCN(C(=O)c1ccccc1)c1ncn(Cc2ccc(OC)c(OC3CCCC3)c2)c2nc(C(C)C)nc1-2` [3-(3-cyclopentyloxy-4-methoxybenzyl)-6-(N-benzoyl-N-ethylamino)-8-isopropyl-3H-purine] was run?
**A.** Its IC50 is 1.43 µM.

Same assay, conditions: dithioxanthines, Table 5; read-out: IC50 PDE IV

**Q.** Which IC50 does the source give for `CC(C)c1nc2c([nH]1)c(=S)[nH]c(=S)n2Cc1ccccc1Cl` [3-(2-chlorobenzyl)-3,7-dihydro-8-isopropyl-2,6-dithio-1H-purine-2,6-dione] here?
**A.** The IC50 was 7.74 µM.

**Q.** Which IC50 does the source give for `CCCn1c(=S)[nH]c(=S)c2[nH]c(C(C)C)nc21` [3,7-dihydro-8-isopropyl-3-propyl-2,6-dithio-1H-purine-2,6-dione] here?
**A.** Its IC50 is 3.5 µM.

**Q.** Which IC50 does the source give for `CCn1c(=S)[nH]c(=S)c2[nH]c(C(C)C)nc21` [3-ethyl-3,7-dihydro-8-isopropyl-2,6-dithio-1H-purine-2,6-dione] here?
**A.** The IC50 was 4.1 µM.

**Q.** For `CC(C)CCn1c(=S)[nH]c(=S)c2[nH]c(C3CC3)nc21` [8-cyclopropyl-3,7-dihydro-3-(3-methylbutyl)-2,6-dithio-1H-purine-2,6-dione], which IC50 is on record?
**A.** Its IC50 is 6.31 µM.

**Q.** With `S=c1[nH]c(=S)n(Cc2ccccc2)c2nc[nH]c12` [3-benzyl-3,7-dihydro-2,6-dithio-1H-purine-2,6-dione] as the compound, how does the IC50 read?
**A.** Its IC50 is 38.5 µM.

**Q.** Which IC50 does the source give for `S=c1[nH]c(=S)n(CC2CCCCC2)c2nc(C3CC3)[nH]c12` [3-cyclohexylmethyl-8-cyclopropyl-3,7-dihydro-2,6-dithio-1H-purine-2,6-dione] here?
**A.** Its IC50 is 3.03 µM.

**Q.** Which IC50 does the source give for `CC(C)c1nc2c([nH]1)c(=S)[nH]c(=S)n2Cc1ccc(Cl)cc1` [3-(4-chlorobenzyl)-8-isopropyl)-3,7 dihydro-2,6-dithio-3,7-purine-2,6-dione] here?
**A.** The IC50 was 2.4 µM.

Same assay, conditions: read-out: PDE IV I50

**Q.** For `CCNc1ncn(Cc2ccc(OC)c(OC3CCCC3)c2)c2ncnc1-2` [3-(3-Cyclopentyloxy-4-methoxybenzyl)-6-ethylamino-3H-purine Hydrochloride], which IC50 is on record?
**A.** The IC50 was 2.15 µM.

**Q.** Which IC50 does the source give for `CCCn1c(=S)nc(NCCO)c2[nH]c(C3CC3)nc21` [8-cyclopropyl-3,7-dihydro-6-(2-hydroxyethylamino)-3-propyl-2-thio-2H-purin-2-one] here?
**A.** The IC50 was 4.48 µM.

**Q.** Which IC50 does the source give for `CCn1c(=S)c2[nH]c(C3CC3)nc2n(CC)c1=S` [8-cyclopropyl-3,7-dihydro-1,3-diethyl-2,6-dithio-1H-purin-2,6-dione] here?
**A.** The IC50 was 0.42 µM.

**Q.** For `CC(C)c1nc2c([nH]1)c(=S)[nH]c(=S)n2Cc1ccc(Cl)cc1` [3-(4-chlorobenzyl)-8-isopropyl)-3,7 dihydro-2,6-dithio-3,7-purine-2,6-dione], which IC50 is on record?
**A.** Its IC50 is 2.27 µM.

Same assay, conditions: thioisoguanines, Table 2; cyclic AMP 0.2 μM; read-out: Calc IC50 PDE IV

**Q.** How did the IC50 turn out when `CCn1c(=S)nc(NC2CCCC2)c2[nH]c(C(C)C)nc21` [3-ethyl-6-cyclopentylamino-3,7-dihydro-8-isopropyl-2-thio-2H-purin-2-one] was run?
**A.** The IC50 was 9.4 µM.

**Q.** With `CCCCn1c(=S)nc(NCC)c2[nH]c(C3CC3)nc21` [3-butyl-8-cyclopropyl-3,7-dihydro-6-ethylamino-2-thio-2H-purin-2-one] as the compound, how does the IC50 read?
**A.** Its IC50 is 34.9 µM.

**Q.** For `CCNc1nc(=S)n(CC2CCCCC2)c2nc(C3CC3)[nH]c12` [3-cyclohexylmethyl-8-cyclopropyl-3,7-dihydro-6-ethylamino-2-thio-2H-purin-2-one], which IC50 is on record?
**A.** Its IC50 is 15.2 µM.

**Q.** For `CCCn1c(=S)nc(NC2CCCC2)c2[nH]c(C(C)C)nc21` [6-cyclopentylamino-3,7-dihydro-8-isopropyl-3-propyl-2-thio-2H-purin-2-one], which IC50 is on record?
**A.** The IC50 was 45.1 µM.

**Q.** For `CCCn1c(=S)nc(NCCO)c2[nH]c(C3CC3)nc21` [8-cyclopropyl-3,7-dihydro-6-(2-hydroxyethylamino)-3-propyl-2-thio-2H-purin-2-one], which IC50 is on record?
**A.** The IC50 was 53.8 µM.

**Q.** How did the IC50 turn out when `CCCCNc1nc(=S)n(CCC)c2nc(C3CC3)[nH]c12` [6-butylamino-8-cyclopropyl-3,7-dihydro-3-propyl-2-thio-2H-purin-2-one] was run?
**A.** The IC50 was 24.5 µM.
